Patent US20240208933A1, “CRYSTALLINE INHIBITORS OF CYSTEINE PROTEASES AND METHODS OF USE THEREOF” (priority 2021, published 2024)
Where two headings read alike, the source gives them in different places.

Columns and labels:
[1] = Approximate solubility determined by visual observation; type: physicochemical; conditions: organic solvent or mixture
Experimental: Approximate solubility was determined by visual observation and shown in Form C Table 8.
Approximate solubility was determined by visual observation and shown in Form F Table 12.

[2] = Dynamic vapor sorption (DVS) analysis; type: physicochemical

Structure (SMILES) | solubility ([1]; acetone, solvent Acetone, read-out: Solubility of Form C) | solubility ([1]; ethanol, solvent Ethanol, read-out: Solubility of Form C) | solubility ([1]; methanol, solvent Methanol, read-out: Solubility of Form C) | solubility ([1]; methanol/dichloromethane (1/1), solvent Methanol/Dichloromethane (1/1), read-out: Solubility of Form C) | solubility ([1]; methanol/dichloromethane (1/2), solvent Methanol/Dichloromethane (1/2), read-out: Solubility of Form C) | solubility ([1]; methanol/dichloromethane (2/1), solvent Methanol/Dichloromethane (2/1), read-out: Solubility of Form C) | DVS reversible total mass change ([2]; from about 90% to about 0% RH) | DVS gain ([2]; to about 90% relative humidity (RH) at 25° C.) | solubility ([1]; acetone, solvent Acetone, read-out: Solubility of Form F) | solubility ([1]; ethanol, solvent Ethanol, read-out: Solubility of Form F) | solubility ([1]; methanol, solvent Methanol, read-out: Solubility of Form F) | solubility ([1]; methanol/dichloromethane (1/1), solvent Methanol/Dichloromethane (1/1), read-out: Solubility of Form F) | solubility ([1]; methanol/dichloromethane (1/2), solvent Methanol/Dichloromethane (1/2), read-out: Solubility of Form F) | solubility ([1]; methanol/dichloromethane (2/1), solvent Methanol/Dichloromethane (2/1), read-out: Solubility of Form F) | DVS reversable gain ([2]; from about 0 to about 90% relative humidity (RH), no hysteresis)
N#C[C@H](C[C@@H]1CCCNC1=O)NC(=O)[C@H](CC1CC1)NC(=O)c1cc2cccc(Cl)c2[nH]1 [Form C, 7-chloro-N—((S)-1-(((S)-1-cyano-2-((S)-2-oxopiperidin-3-yl)ethyl)amino)-3-cyclopropyl-1-oxopropan-2-yl)-1H-indole-2-carboxamide, anhydrate] | < 2 mg/mL | > 2 mg/mL | > 9 mg/mL | > 23 mg/mL | > 28 mg/mL | > 16 mg/mL | about 0.7% | about 0.5% | – | – | – | – | – | – | –
N#C[C@H](C[C@@H]1CCCNC1=O)NC(=O)[C@H](CC1CC1)NC(=O)c1cc2cccc(Cl)c2[nH]1 [Form F, 7-chloro-N—((S)-1-(((S)-1-cyano-2-((S)-2-oxopiperidin-3-yl)ethyl)amino)-3-cyclopropyl-1-oxopropan-2-yl)-1H-indole-2-carboxamide, hydrate] | – | – | – | – | – | – | – | – | < 2 mg/mL | > 7 mg/mL | > 11 mg/mL | > 47 mg/mL | > 58 mg/mL | > 19 mg/mL | about 4 wt. %
